# Data from US20140314847A1, “CONTROLLED RELEASE PHARMACEUTICAL COMPOSITIONS WITH IMPROVED BIOAVAILABILILTY” (priority 2004, published 2014).
# Assay: In vitro dissolution study of acyclovir solubilized using various solubilizers
# Type: physicochemical
# Procedure: A solubilizing agent was melted in a container and a drug was added and mixed intimately and cooled to room temperature. The mass was sifted through an appropriate sieve to get a uniform blend. A blend of the drug was prepared using polyethylene glycol 6000, Lutrol F127 and Gelucire (50/13). Solid dispersion of the drug with various solubilizing agents like polyethylene glycol 6000, Lutrol F127 and Gelucire 50/13 were studied for their solubility in 900 ml distilled water. […] Also with Lutrol in ratio (1:0.5 to 1:2) a three-fold increase in instantaneous solubility was observed. These samples were taken for dissolution study and the result obtained are provided in Table 3 hereunder and graphically depicted in Figure-I: […]
compound,measurement,setting,value
"Nc1nc2c(ncn2COCCO)c(=O)[nH]1 [Acyclovir as is, Acyclovir]",% drug dissolved,0 min,0%
same,% drug dissolved,5 min,16.03%
same,% drug dissolved,10 min,19.58%
same,% drug dissolved,15 min,24.09%
same,% drug dissolved,20 min,29.34%
same,% drug dissolved,30 min,33.89%
same,% drug dissolved,45 min,47.11%
same,% drug dissolved,60 min,53.78%
same,% drug dissolved,90 min,68.87%
same,% drug dissolved,120 min,75.40%
